From ChEMBL document CHEMBL3400002, “Structure-activity study for (bis)ureidopropyl- and (bis)thioureidopropyldiamine LSD1 inhibitors with 3-5-3 and 3-6-3 carbon backbone architectures” (Bioorg Med Chem, 2015)

Legend:
[1] = target: Lysine-specific histone demethylase 1A (Homo sapiens) (UniProt O60341); assay: Activation of human recombinant LSD1 at 10 uM after 30 mins to 4 hrs by fluorescence assay relative to control
[2] = target: T1, Amine oxidase [flavin-containing] A (Homo sapiens, UniProt P21397)
T1 sequence (P21397 whole entry): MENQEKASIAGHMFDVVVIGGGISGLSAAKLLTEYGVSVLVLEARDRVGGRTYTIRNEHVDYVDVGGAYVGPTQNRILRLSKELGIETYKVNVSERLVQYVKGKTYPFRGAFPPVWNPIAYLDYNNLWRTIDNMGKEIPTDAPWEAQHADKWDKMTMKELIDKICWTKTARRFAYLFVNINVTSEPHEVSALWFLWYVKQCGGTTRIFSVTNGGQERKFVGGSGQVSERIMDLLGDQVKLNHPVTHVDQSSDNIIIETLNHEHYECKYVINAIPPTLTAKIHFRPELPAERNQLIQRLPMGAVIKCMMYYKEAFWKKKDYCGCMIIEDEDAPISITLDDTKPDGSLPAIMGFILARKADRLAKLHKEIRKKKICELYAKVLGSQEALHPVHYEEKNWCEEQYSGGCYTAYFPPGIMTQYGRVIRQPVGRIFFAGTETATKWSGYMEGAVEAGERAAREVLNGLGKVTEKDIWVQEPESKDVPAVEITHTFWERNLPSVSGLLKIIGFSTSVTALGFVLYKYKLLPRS

[3] = target: T2, Amine oxidase [flavin-containing] B (Homo sapiens, UniProt P27338)
T2 sequence (P27338 whole entry): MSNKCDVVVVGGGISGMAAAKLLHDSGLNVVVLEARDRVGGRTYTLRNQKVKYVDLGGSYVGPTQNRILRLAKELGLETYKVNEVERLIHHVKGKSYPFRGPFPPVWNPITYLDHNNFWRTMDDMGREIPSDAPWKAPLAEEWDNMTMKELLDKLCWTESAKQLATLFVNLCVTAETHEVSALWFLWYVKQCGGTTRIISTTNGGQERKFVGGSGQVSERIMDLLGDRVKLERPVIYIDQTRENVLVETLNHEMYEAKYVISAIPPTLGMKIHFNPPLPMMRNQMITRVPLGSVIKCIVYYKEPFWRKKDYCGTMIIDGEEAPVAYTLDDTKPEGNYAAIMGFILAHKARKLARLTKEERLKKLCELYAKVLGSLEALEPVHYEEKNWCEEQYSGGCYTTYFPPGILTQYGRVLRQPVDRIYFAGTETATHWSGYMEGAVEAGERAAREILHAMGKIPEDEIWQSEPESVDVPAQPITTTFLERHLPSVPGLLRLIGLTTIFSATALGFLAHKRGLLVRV

Row | Compound | Activity [1] | IC50 [2] | IC50 [3]
1 | O=C(NCCCNCCCCCCNCCCNC(=O)NCc1ccccc1)NCc1ccccc1 | 110% |  | 
2 | O=C(NCCCNCCCCCNCCCNC(=O)Nc1ccccc1)Nc1ccccc1 | 163% |  | 
3 | CCNC(=O)NCCCNCCCCCCNCCCNC(=O)NCC | 119% |  | 

Other lines, results leading:

Row | Activity [1] | IC50 [2] | IC50 [3] | Compound
4 | 119% |  |  | CCCNC(=O)NCCCNCCCCCCNCCCNC(=O)NCCC
5 |  | 37 µM | 10 µM | N=C(NCCCNCCCCCCCNCCCNC(=N)NC(=N)NCCC(c1ccccc1)c1ccccc1)NC(=N)NCCC(c1ccccc1)c1ccccc1
